Patent US12043625B2, “Pyridine derivatives with c-linked cyclic substituents as cGAS inhibitors” (BOEHRINGER INGELHEIM INTERNATIONAL GMBH, priority 2021, dated 2024)

Experiments:
[1] = tested on: IFN induction in cGAMP-stimulated THP1 cells; experiment: cGAMP stimulated counter cell assay, THP1-Dual cells, Lucia luciferase reporter (THP1(cGAMP) IC50); format: cell-based; conditions: Homo sapiens, THP-1, THP1-Dual cells stimulated with 10 μM cGAMP;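 note: IRF-driven Lucia luciferase luminescence after 18 h at 37° C, compound series topping at 10 µM with 1% DMSO, unstimulated wells as 0% and DMSO wells as 100%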
Description: 6.2 Method: Human cGAS Cell Assay and cGAMP Stimulated Counter Cell Assay (THP1(vir) IC50 and THP1(cGAMP) IC50)
THP1-Dual™ cells (InvivoGen #thpd-nfis) expressing IRF dependent Lucia luciferase reporter were used as basis for both assays.
(§1) For the counter assay, cells were stimulated by cGAMP (SigmaAldrich #SML1232) to activate the identical pathway independent and directly downstream of cGAS (measurement of THP1(cAMP) IC50). Pathway activity was monitored by measuring the Lucia luciferase activity induced by either DNA stimulated cGAS enzyme activity (measurement of THP1^(vir) IC50) or by cGAMP directly (measurement of THP1(cAMP) IC50, counter assay).
Compounds were delivered in 10 mM DMSO solution, serially diluted and transferred to the 384 well assay plate (Greiner #781201) using an Echo acoustic dispenser. Typically, 8 concentrations were used with the highest concentration at 10 μM in the final assay volume followed by ˜1:5 dilution steps. DMSO concentration was set to 1% in the final assay volume. The 384 well assay plate contained 21 test compounds (column 1-22), and DMSO in column 23 and 24.
(§2) 30 μL of the cell/virus-mix were added to each well of the compound plate from column 1-23 via MultiDrop Combi dispenser (5000 cells/well). In column 24, 30 μl/5000 cells/well without virus were added as a low control.
(§3) The plates were then incubated for 18 h at 37° C. in a humidified incubator.
(§4) Following that, 15 μL of QuantiLuc detection reagent (InvivoGen #rep-qlcg5) were added to each well using a MultiDrop Combi. Measurement was done immediately after the addition using an EnVision reader (US-luminescence read-mode).
Data Evaluation and Calculation:
(§5) For data evaluation and calculation, the measurement of the low control was set as 0% control and the measurement of the high control was set as 100% control. The IC50 values were calculated using the standard 4 parameter logistic regression formula. Calculation: [y=(a−d)/(1+(x/c)^b)+d], a=low value, d=high value; x=conc M; c=1C50 M; b=slope

Human cGAS = Human cGAS (Homo sapiens (Human), UniProt Q8N884); experiment: Human cGAS enzyme assay (hcGAS IC50, in vitro), cGAMP formation by RapidFire MS; format: biochemical; conditions: 45 bp dsDNA, GTP/ATP;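 note: compounds preincubated 60 min, then GTP and ATP (30 µM each) added for 90 min at room temperature, cGAMP read relative to cyclic-di-GMP internal standard, no-enzyme/DNA wells as 0%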
Human cGAS, sequence (Q8N884 whole entry): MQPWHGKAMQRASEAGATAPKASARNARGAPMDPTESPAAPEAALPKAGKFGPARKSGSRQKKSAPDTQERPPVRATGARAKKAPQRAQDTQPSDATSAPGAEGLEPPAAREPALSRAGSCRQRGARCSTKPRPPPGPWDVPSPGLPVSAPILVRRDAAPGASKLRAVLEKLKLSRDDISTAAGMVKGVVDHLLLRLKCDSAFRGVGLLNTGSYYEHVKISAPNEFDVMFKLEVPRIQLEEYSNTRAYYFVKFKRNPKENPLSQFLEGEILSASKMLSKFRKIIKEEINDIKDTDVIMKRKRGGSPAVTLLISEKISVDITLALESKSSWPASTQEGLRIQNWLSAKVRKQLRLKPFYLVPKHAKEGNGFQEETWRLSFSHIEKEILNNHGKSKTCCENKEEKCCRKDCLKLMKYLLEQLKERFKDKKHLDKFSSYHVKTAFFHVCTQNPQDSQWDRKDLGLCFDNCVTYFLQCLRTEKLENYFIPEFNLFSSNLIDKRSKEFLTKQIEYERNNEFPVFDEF

[2] = tested on: IFN induction in dsDNA-stimulated human whole blood; experiment: Human whole blood assay, dsDNA transfection, IFNα2a production (hWB IC50); format: cell-based;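 note: cGAS pathway activity, IFNα2a in plasma by MSD immunoassay after 22 h at 37 °C, 8 concentrations up to 10 µM in 0.1% DMSO, DMSO controls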
Protocol: For the detection of cellular cGAS activity human whole blood was stimulated by transfection with double stranded DNA. Pathway activity was monitored by measuring the IFNα2α production.
Typically, 8 concentrations were used with the highest concentration at 10 μM in the final assay volume followed by ˜1:5 dilution steps. DMSO concentration was set to 0.1% in the final assay volume. The 96-well assay plate contained 10 test compounds, and DMSO in control wells.
Whole blood was kept at room temperature for a maximum of 3 hours after collection until use in the assay.
160 μl of the whole blood samples was transferred to each well of the 96-well assay plates filled with compound/OptiMEM. All assay plates were prepared as duplicates with blood from different donors. Blood plates were kept at room temperature for 60 minutes and continuous shaking with 450 rpm, covered with the lid, but not sealed.
20 μl OptiMEM and 9.6:1 Fugene was added to all low control wells.
After covering assay plates with aera seals and the lid, blood plates were kept at room temperature for 30 minutes and continuous shaking with 450 rpm, followed by an overnight incubation of 22 h at 37° C. in the incubator, without shaking.
U-Plex MSD GOLD 96-well Small Spot Strepavidin SECTOR Plates (Meso Scale Diagnostics #L45SA-5) were coated with 25 μl diluted capture antibody. Coated plates were incubated for 60 min at room temperature under continuous shaking at 700 rpm. MSD IFNα-2a plates were washed three times with 150 μl wash buffer (1×HBSS, 0.05% Tween).
After blocking the plates with 100 μl block solution/well (1×HBSS with 0.2% Tween, 2% BSA) for 60 min at room temperature and continuous shaking at 700 rpm, plates were emptied as dry as possible by dumping just before continuing with the human plasma.
Whole Blood assay plates were centrifuged at 1600 rpm for 10 minutes. 25 μl of supernatant was transferred with a pipetting robot from each whole blood plate to the corresponding IFNα-2a plate.
Plates were sealed with microplate seals and kept at room temperature again under continuous shaking at 700 rpm for two hours.
Next MSD IFNα-2a plates were washed three times with 150 μl wash buffer (1×HBSS, 0.05% Tween), before adding 25 μl MSD SULFO-TAG IFNα-2a Antibody solution (1:100 diluted in Diluent 3 (Meso Scale Diagnostics #R50AP-2) to each well of the plates.
Afterwards plates were sealed with microplate seals and kept at room temperature again under continuous shaking at 700 rpm for two hours. Finally, MSD IFNα-2α plates were washed three times with 150 μl wash buffer (1×HBSS, 0.05% Tween). 150 μl 2× Read buffer was added to each well and plates were immediately measured with the MSD Sector S600 Reader using the vendor barcode.
For data evaluation and calculation, % control calculation of each well was based on the mean of high (DNA stimulated control) and mean of low (unstimulated control) controls by using the following formula: [counts(sample)−counts(low))/(counts(high)−counts(low))]*100
The IC50 values were calculated using the standard 4 parameter logistic regression formula. Calculation: [y=(a−d)/(1+(x/c)^b)+d], a=low value, d=high value; x=conc M; c=1C50 M; b=slope

[3] = tested on: IFN induction in virus-stimulated THP1 cells; experiment: Human cGAS cell assay, baculovirus-stimulated THP1-Dual cells, Lucia luciferase reporter (THP1(vir) IC50); format: cell-based; conditions: for IC50: Homo sapiens, THP-1, baculovirus-stimulated THP1-Dual cells, 18 h; for Ratio THP(cGAMP) IC50/THP(vir) IC50: selectivity for cGAS inhibition;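 for all read-outs here: IRF-dependent luminescence, 8 concentrations up to 10 µM in 1% DMSO, 0% = unstimulated cells, 100% = DMSO plus virus, counter assay stimulated with cGAMP downstream of cGAS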
Description: THP1-Dual™ cells (InvivoGen #thpd-nfis) expressing IRF dependent Lucia luciferase reporter were used as basis for both assays. For the detection of cellular cGAS activity cells were stimulated by a baculovirus (pFastbac-1, Invitrogen, no coding insert) infection that delivers the cGAS enzyme stimulating double-stranded DNA (measurement of THP1(vir) IC50).
as §1
Typically, 8 concentrations were used with the highest concentration at 10 μM in the final assay volume followed by ˜1:5 dilution steps. DMSO concentration was set to 1% in the final assay volume. The 384 well assay plate contained 21 test compounds (column 1-22), and DMSO in column 23 and 24.
The baculovirus solution was then added 1:200 (may have varied according to virus batch) to the cells (measurement of THP1(vir) IC50).
as §2, §3, §4
Data Evaluation and Calculation:
as §5

Row | SMILES | IC50 [1] [nM] | IC50 (Human cGAS) [nM] | IC50 [2] [nM] | IC50 [3] [nM] | Ratio THP(cGAMP) IC50/THP(vir) IC50 [3]
1 | C#Cc1cnc(O[C@H]2C[C@@H](C(=O)O)N(c3nc(C(F)(F)F)nc4c3oc3ccccc34)C2)c([C@]2(F)CCS(=O)(=O)C[C@H]2C)c1 [Example 2.15] | 10300 | 6 | 291 | 207 | 50
2 | C#Cc1cnc(O[C@H]2C[C@@H](C(=O)O)N(c3nc(C(F)F)nc4c3oc3ccccc34)C2)c([C@@]2(F)CC(C)(C)S(=O)(=O)C[C@@H]2C)c1 [Example 1.09] | 15800 | 4 | 4 | < 5 | >2935
3 | C[C@H]1CS(=O)(=O)CC[C@@]1(F)c1cc(Cl)cnc1O[C@H]1C[C@@H](C(=O)O)N(c2nc(C(F)F)nc3c2oc2ccccc23)C1 [Example 1.11] | > 16600 | 2 | 194 | 731 | 
4 | COc1cc(-c2cnc(O[C@H]3C[C@@H](C(=O)O)N(c4nc(C(F)F)nc5c4oc4ccccc45)C3)c([C@@]3(F)CCN(C(C)=O)C[C@@H]3C)c2)c(F)cn1 [Example 3.03] | 10400 | 12 | 53 | 18 | 568
5 | CNc1cc(-c2cnc(O[C@H]3C[C@@H](C(=O)O)N(c4nc(C(F)F)nc5c4oc4ccccc45)C3)c([C@@]3(F)CCOC[C@@H]3C)c2)ccn1 [Example 3.02] | 4710 | 2 | 53 | 23 | 201
6 | CC(=O)N1CC[C@](F)(c2cc(-c3cccc(N(C)C)c3)cnc2O[C@H]2C[C@@H](C(=O)O)N(c3nc(C(F)F)nc4c3oc3ccccc34)C2)[C@@H](C)C1 [Example 3.04] | 10500 | 29 | 46 | 16 | 650
7 | C#Cc1cnc(O[C@H]2C[C@@H](C(=O)O)N(c3nc(C(F)F)nc4c3oc3ccccc34)C2)c([C@@]2(F)CCOC[C@@H]2C)c1 [Example 1.02] | 18900 | 3 | 103 | 351 | 54
8 | O=C(O)[C@@H]1C[C@H](Oc2ncc(Cl)cc2[C@@]2(F)CCS(=O)(=O)C3(COC3)C2)CN1c1nc(C(F)F)nc2c1oc1ccccc12 [Example 1.19] | 14000 | 5 | 316 | 566 | 25
9 | C#Cc1cnc(O[C@H]2C[C@@H](C(=O)O)N(c3nc(C(F)F)nc4c3oc3ccccc34)C2)c([C@]2(F)CCS(=O)(=O)C[C@H]2C)c1 [Example 2.14] | 7760 | 5 | 124 | 248 | 31
10 | O=C(O)[C@@H]1C[C@H](Oc2ncc(-n3cc(Cl)cn3)cc2C2(F)CCOCC2)CN1c1nc(C(F)F)nc2c1oc1ccccc12 [Example 5.01, (2S,4S)-4-{[5-(4-chloro-1H-pyrazol-1-yl)-3-(4-fluorooxan-4-yl)pyridin-2-yl]oxy}-1-[4-(difluoromethyl)-8-oxa-3,5-diazatricyclo[7.4.0.0^2,7]trideca-1(13),2,4,6,9,11-hexaen-6-yl]pyrrolidine-2-carboxylic acid] | > 16600 | 12 | 2890 | 1000 | >17
11 | C[C@H]1CS(=O)(=O)CC[C@]1(F)c1cc(Cl)cnc1O[C@H]1C[C@@H](C(=O)O)N(c2nc(C(F)(F)F)nc3c2oc2ccccc23)C1 [Example 2.10] | 18800 | 3 | 15 | 4 | 4605
12 | C[C@H]1CS(=O)(=O)C(C)(C)C[C@]1(F)c1cc(Cl)cnc1O[C@H]1C[C@@H](C(=O)O)N(c2nc(C(F)F)nc3c2oc2ccccc23)C1 [Example 1.16] | 8240 | 5 | 6 | 8 | 1055
13 | C#Cc1cnc(O[C@H]2C[C@@H](C(=O)O)N(c3nc(C(F)(F)F)nc4c3oc3ccccc34)C2)c([C@]2(F)CCS(=O)(=O)C(C)(C)C2)c1 [Example 1.14] | 5280 | 9 | 53 | 42 | 127
14 | C[C@H]1COCC[C@]1(F)c1cc(-c2cccc(N(C)C)c2)cnc1O[C@H]1C[C@@H](C(=O)O)N(c2nc(C(F)F)nc3c2oc2ccccc23)C1 [Example 6.04] | 7680 | 17 | 75 | 21 | 371
15 | C#Cc1cnc(O[C@H]2C[C@@H](C(=O)O)N(c3nc(C(F)(F)F)nc4c3oc3ccccc34)C2)c(C23CCOCC2C3)c1 (stereo partly drawn) [Example 4.01, (2S,4S)-4-[(5-ethynyl-3-{3-oxabicyclo[4.1.0]heptan-6-yl}pyridin-2-yl)oxy]-1-[4-(trifluoromethyl)-8-oxa-3,5-diazatricyclo[7.4.0.0^2,7]trideca-1(13),2,4,6,9,11-hexaen-6-yl]pyrrolidine-2-carboxylic acid] | > 16600 | 8 | 1500 | 784 | >21
